In the supplement of paper PMC10307832:

Assays:
Test in all cases: relative viability (nuclei count vs DMSO), 5 days (fraction); higher = more cells survive
LCLC-97TM1 = test system: LCLC-97TM1
Outline: (§1)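 Lung cancer cell lines in 1536-well plates got either a single drug or a fixed anchor-drug dose together with five library-drug doses (not always all listed) in √10 steps, by pin tool, on the day after seeding. Nuclei were counted after 5 days, and relative viability is the treated-to-vehicle ratio of nuclei counts. Values are medians of duplicate plates.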

NCI-H661 = test system: NCI-H661
Outline: as §1

NCI-H1651 = test system: NCI-H1651
Outline: as §1

NCI-H1650 = test system: NCI-H1650
Outline: as §1

NCI-H650 = test system: NCI-H650
Outline: as §1

ABC-1 = test system: ABC-1
Outline: as §1

NCI-H727 = test system: NCI-H727
Outline: as §1

NCI-H2087 = test system: NCI-H2087
Outline: as §1

PC-3 [JPC-3] = test system: PC-3 [JPC-3]
Outline: as §1

NCI-H596 = test system: NCI-H596
Outline: as §1

NCI-H1792 = test system: NCI-H1792
Outline: as §1

LC-2-ad = test system: LC-2-ad
Outline: as §1

NCI-H441 = test system: NCI-H441
Outline: as §1

CAL-12T = test system: CAL-12T
Outline: as §1

NCI-H1944 = test system: NCI-H1944
Outline: as §1

NCI-H520 = test system: NCI-H520
Outline: as §1

A-427 = test system: A-427
Outline: as §1

NCI-H1915 = test system: NCI-H1915
Outline: as §1

H3255 = test system: H3255
Outline: as §1

BEN = test system: BEN
Outline: as §1

NCI-H460 = test system: NCI-H460
Outline: as §1

NCI-H2023 = test system: NCI-H2023
Outline: as §1

201T = test system: 201T
Outline: as §1

## O=C(O)c1ccc(-c2c[nH]c3ncc(-c4ccccc4)cc23)cc1C1CCCC1 + O=C(c1cc(Cc2n[nH]c(=O)c3ccccc23)ccc1F)N1CCN(C(=O)C2CC2)CC1 [Olaparib] (partner 8 µM)
LCLC-97TM1; first compound 0.04 µM
  relative viability: 0.435
LCLC-97TM1; first compound 0.1265 µM
  relative viability: 0.54
LCLC-97TM1; first compound 0.4 µM
  relative viability: 0.396
LCLC-97TM1; first compound 1.265 µM
  relative viability: 0.258
NCI-H661; first compound 0.04 µM
  relative viability: 0.698
NCI-H661; first compound 0.1265 µM
  relative viability: 0.772
NCI-H661; first compound 0.4 µM
  relative viability: 0.744
NCI-H661; first compound 1.265 µM
  relative viability: 0.656
NCI-H1651; first compound 0.04 µM
  relative viability: 0.17
NCI-H1651; first compound 0.1265 µM
  relative viability: 0.187
NCI-H1651; first compound 0.4 µM
  relative viability: 0.176
NCI-H1651; first compound 1.265 µM
  relative viability: 0.192
NCI-H1650; first compound 0.04 µM
  relative viability: 0.735
NCI-H1650; first compound 0.1265 µM
  relative viability: 0.815
NCI-H1650; first compound 0.4 µM
  relative viability: 0.65
NCI-H1650; first compound 1.265 µM
  relative viability: 0.606
NCI-H650; first compound 0.04 µM
  relative viability: 0.372
NCI-H650; first compound 0.1265 µM
  relative viability: 0.432
NCI-H650; first compound 0.4 µM
  relative viability: 0.324
NCI-H650; first compound 1.265 µM
  relative viability: 0.256
ABC-1; first compound 0.04 µM
  relative viability: 1.03
ABC-1; first compound 0.1265 µM
  relative viability: 0.726
ABC-1; first compound 0.4 µM
  relative viability: 0.611
ABC-1; first compound 1.265 µM
  relative viability: 1.1
NCI-H727; first compound 0.04 µM
  relative viability: 0.629
NCI-H727; first compound 0.1265 µM
  relative viability: 0.713
NCI-H727; first compound 0.4 µM
  relative viability: 0.633
NCI-H727; first compound 1.265 µM
  relative viability: 0.563
NCI-H2087; first compound 0.04 µM
  relative viability: 0.686
NCI-H2087; first compound 0.1265 µM
  relative viability: 0.597
NCI-H2087; first compound 0.4 µM
  relative viability: 0.524
NCI-H2087; first compound 1.265 µM
  relative viability: 0.342
PC-3 [JPC-3]; first compound 0.04 µM
  relative viability: 1.07
PC-3 [JPC-3]; first compound 0.1265 µM
  relative viability: 1.07
PC-3 [JPC-3]; first compound 0.4 µM
  relative viability: 1.15
PC-3 [JPC-3]; first compound 1.265 µM
  relative viability: 0.919
NCI-H596; first compound 0.04 µM
  relative viability: 0.711
NCI-H596; first compound 0.1265 µM
  relative viability: 0.745
NCI-H596; first compound 0.4 µM
  relative viability: 0.749
NCI-H596; first compound 1.265 µM
  relative viability: 0.607
NCI-H1792; first compound 0.04 µM
  relative viability: 0.422
NCI-H1792; first compound 0.1265 µM
  relative viability: 0.655
NCI-H1792; first compound 0.4 µM
  relative viability: 0.446
NCI-H1792; first compound 1.265 µM
  relative viability: 0.405
LC-2-ad; first compound 0.04 µM
  relative viability: 0.651
LC-2-ad; first compound 0.1265 µM
  relative viability: 0.642
LC-2-ad; first compound 0.4 µM
  relative viability: 0.623
LC-2-ad; first compound 1.265 µM
  relative viability: 0.566
NCI-H441; first compound 0.04 µM
  relative viability: 0.606
NCI-H441; first compound 0.1265 µM
  relative viability: 0.563
NCI-H441; first compound 0.4 µM
  relative viability: 0.467
NCI-H441; first compound 1.265 µM
  relative viability: 0.265
CAL-12T; first compound 0.04 µM
  relative viability: 0.656
CAL-12T; first compound 0.1265 µM
  relative viability: 0.668
CAL-12T; first compound 0.4 µM
  relative viability: 0.566
CAL-12T; first compound 1.265 µM
  relative viability: 0.379
NCI-H1944; first compound 0.04 µM
  relative viability: 0.421
NCI-H1944; first compound 0.1265 µM
  relative viability: 0.444
NCI-H1944; first compound 0.4 µM
  relative viability: 0.412
NCI-H1944; first compound 1.265 µM
  relative viability: 0.36
NCI-H520; first compound 0.04 µM
  relative viability: 0.337
NCI-H520; first compound 0.1265 µM
  relative viability: 0.416
NCI-H520; first compound 0.4 µM
  relative viability: 0.348
NCI-H520; first compound 1.265 µM
  relative viability: 0.271
A-427; first compound 0.04 µM
  relative viability: 0.706
A-427; first compound 0.1265 µM
  relative viability: 0.845
A-427; first compound 0.4 µM
  relative viability: 0.644
A-427; first compound 1.265 µM
  relative viability: 0.573
NCI-H1915; first compound 0.04 µM
  relative viability: 0.266
NCI-H1915; first compound 0.1265 µM
  relative viability: 0.25
NCI-H1915; first compound 0.4 µM
  relative viability: 0.226
NCI-H1915; first compound 1.265 µM
  relative viability: 0.203
H3255; first compound 0.04 µM
  relative viability: 0.574
H3255; first compound 0.1265 µM
  relative viability: 0.57
H3255; first compound 0.4 µM
  relative viability: 0.514
H3255; first compound 1.265 µM
  relative viability: 0.507
BEN; first compound 0.04 µM
  relative viability: 1.05
BEN; first compound 0.1265 µM
  relative viability: 1.06
BEN; first compound 0.4 µM
  relative viability: 1.09
BEN; first compound 1.265 µM
  relative viability: 0.944
NCI-H460; first compound 0.04 µM
  relative viability: 0.523
NCI-H460; first compound 0.1265 µM
  relative viability: 0.463
NCI-H460; first compound 0.4 µM
  relative viability: 0.456
NCI-H460; first compound 1.265 µM
  relative viability: 0.42
NCI-H2023; first compound 0.04 µM
  relative viability: 0.475
NCI-H2023; first compound 0.1265 µM
  relative viability: 0.485
NCI-H2023; first compound 0.4 µM
  relative viability: 0.408
NCI-H2023; first compound 1.265 µM
  relative viability: 0.238
201T; first compound 0.04 µM
  relative viability: 0.837
201T; first compound 0.1265 µM
  relative viability: 0.866
201T; first compound 0.4 µM
  relative viability: 0.827
201T; first compound 1.265 µM
  relative viability: 0.775
